System: Caco-2 cells
Test: Pilot study: uptake of CoQ10 into Caco-2 cells
Type: in vitro ADME, human
Details: 1 millimolar CoQ10, two hours, control set at 100%
Description: An initial pilot study established that VDMO improved the uptake of CoQ10 into Caco-2 cells. Caco-2 cells were grown for 15 days in the bottom of 24-well plastic culture dishes and then were exposed to 1 millimolar concentrations of CoQ10 mixed with 5%, 1% or no VDMO. The VDMO utilized here was as analyzed in Table 3b. Cells were returned to the incubator for two hours, then cells and media were separated by centrifugation. The cellular fraction was washed and centrifuged a second time and the amount of CoQ10 inside the cells was determined by Liquid Chromatography Mass Spectrometry. The experiment was repeated twice; the absorption in the control group was set to 100% and treatments were compared accordingly; results are shown in Table 4.

Absorption (%) Experiment 1: 100 ± 6.1% | Absorption (%) Experiment 2: 100 ± 0.3%
Compound: COC1=C(OC)C(=O)C(C/C=C(\C)CC/C=C(\C)CC/C=C(\C)CC/C=C(\C)CC/C=C(\C)CC/C=C(\C)CC/C=C(\C)CC/C=C(\C)CC/C=C(\C)CCC=C(C)C)=C(C)C1=O [CoQ10 + no VDMO; Control, Coenzyme Q10 (ubiquinone; CoQ10)]

From US9119882B2, “Volatile distillate by-product of mint oil that promotes absorption and/or bioavailability of compounds of bio-medical and nutritional interest” (Flavor Liquidating (G) Corporation (new name of A.M. Todd …, priority 2008, dated 2015)
